Test results taken from ChEMBL document CHEMBL5226385, “The Antiangiogenic and Antitumor Effects of Scoparasin B in Non-Small-Cell Lung Cancer” (J Nat Prod, 2023).
Activity calls are given as the source filed them. No cut-off for these calls is given here.

Tests used:
HMEC-1 [1] = assay: Antiangiogenic activity against human HMEC-1 cells assessed as inhibition of capillary tube-like structure formation incubated for 6 hrs by Matrigel based analysis; type: functional, cell-based; conditions: dose 5-20 nM
Rattus norvegicus = organism: Rattus norvegicus; assay: Ex vivo antiangiogenic activity against Sprague-Dawley rat aorta rings assessed as reduction in microvessel sprouting from aortic rings by measuring reduction in total microvessel lengths measured after 6 days by microscopic analysis; type: functional; conditions: dose 5-20 nM, time 6.0 day
NCI-H1299 [2] = assay: Downregulation of MMP9 mRNA expression in human NCI-H1299 cells at 5 to 15 nM incubated for 24 hrs by qPCR analysis; type: functional, cell-based; conditions: dose 5-15 nM
NCI-H1299 [3] = assay: Inhibition of vasculogenic-mimicry in human NCI-H1299 cells assessed as inhibition of capillary-like network formation by measuring reduction in tube number and vascular branches at 5 to 15 nM measured after 6 hrs by Matrigel-based analysis; type: functional, cell-based; conditions: dose 5-15 nM
NCI-H1299 [4] = assay: Downregulation of Snail mRNA expression in human NCI-H1299 cells at 5 to 15 nM incubated for 24 hrs by qPCR analysis; type: functional, cell-based; conditions: dose 5-15 nM
[5] = target: Platelet-derived growth factor receptor beta (Homo sapiens) (UniProt P09619); assay: Inhibition of PDGF-BB-mediated PDGFR-beta signaling axis in human HBVP cells assessed as inhibition of PDGFR-beta phosphorylation at Tyr857 residue at 5 to 15 nM incubated for 24 hrs by western blot analysis; type: cell-based; conditions: dose 5-15 nM
HMEC-1 [6] = assay: Inhibition of VEGF-A secretion in human HMEC-1 cells incubated for 36 hrs by ELISA; type: functional, cell-based; conditions: dose 5-15 nM
HUVEC [7] = assay: Inhibition of pericyte-mediated angiogenesis in PKH26-labeled human HUVEC cells assessed as reduction in PKH67-labeled HBVP recruitment to newly formed capillary by endothelial cells by measuring reduction in overall vessel coverage for branch points and total tube lengths at 5 to 15 nM pericytes pretreated with compound for 48 hrs followed by incubation with endothelial cells and measured within 3 hrs by Matrigel-based fluorescence analysis; type: functional, cell-based; conditions: dose 5-15 nM, time 51.0 hrs
NCI-H1299 [8] = assay: […] of E-Cadherin protein expression in human NCI-H1299 cells at 5 to 15 nM incubated for 24 hrs by western blot analysis; type: functional, cell-based; conditions: dose 5-15 nM
NCI-H1299 [9] = assay: Downregulation of VE-Cadherin protein expression in human NCI-H1299 cells at 5 to 15 nM incubated for 24 hrs by western blot analysis; type: functional, cell-based; conditions: dose 5-15 nM
NCI-H1299 [10] = assay: Inhibition of vasculogenic-mimicry in human NCI-H1299 cells assessed as inhibition of cell invasion at 5 to 15 nM measured after 24 hrs by Transwell invasion assay; type: functional, cell-based; conditions: dose 5-15 nM
HUVEC [11] = assay: Antiangiogenic activity against human HUVEC cells assessed as inhibition of capillary tube-like structure formation at 15 nM incubated for 6 hrs by Matrigel based analysis; type: functional; set-up: scale not given: the % may be the effect or the level left
[12] = target: Vascular endothelial growth factor receptor 2 (Homo sapiens) (UniProt P35968); assay: Inhibition of VEGF-A-mediated VEGFR2 signaling pathway in human HMEC-1 cells assessed as reduction in Akt phosphorylation at Thr308 residue at 5 to 15 nM incubated for 36 hrs by western blot analysis; type: cell-based; conditions: dose 5-15 nM
HMEC-1 [13] = assay: Cytotoxicity against human HMEC-1 cells assessed as reduction in cell proliferation upto 25 nM measured after 48 hrs by CCK8 assay; type: toxicity, cell-based; conditions: hmec-1, 48 h, 0.025 µM
NCI-H1299 [14] = assay: Antitumor activity against human NCI-H1299 cells xenografted in BALB/c nude mouse assessed as tumor volume at 0.75 mg/kg, ip administered every other day for 20 days by vernier caliper analysis (reference value: 1206.46 +/-332.44 mm3); type: functional; conditions: time 20 day
NCI-H1299 [15] = assay: Antitumor activity against human NCI-H1299 cells xenografted in BALB/c nude mouse assessed as reduction in tumor weight at 0.75 to 1.5 mg/kg, ip administered every other day for 20 days; type: functional, organism-based; conditions: dose 0.75-1.5 mg/kg, time 20.0 day
[16] = target: Vascular endothelial growth factor receptor 2 (Homo sapiens) (UniProt P35968); assay: Inhibition of VEGF-A-mediated VEGF-R2 signaling pathway in human NCI-H1299 cells assessed as reduction in VEGF-R2 phosphorylation at Tyr1175 residue at 5 to 15 nM by western blot analysis; type: cell-based; conditions: dose 5-15 nM
HMEC-1 [17] = assay: Antiangiogenic activity against human HMEC-1 cells assessed as inhibition of cell migration measured after 8 hrs by scratch wound healing assay; type: functional, cell-based; conditions: dose 5-15 nM
[18] = target: Vascular endothelial growth factor receptor 2 (Homo sapiens) (UniProt P35968); assay: Inhibition of VEGF-A-mediated VEGFR2 signaling pathway in human HMEC-1 cells assessed as reduction in mTOR phosphorylation at Ser2448 residue at 5 to 15 nM incubated for 36 hrs by western blot analysis; type: cell-based; conditions: dose 5-15 nM
HUVEC [19] = assay: Antiangiogenic activity against human HUVEC cells assessed as inhibition of capillary tube-like structure formation incubated for 6 hrs by Matrigel based analysis; type: functional, cell-based; conditions: dose 5-20 nM
NCI-H1299 [20] = assay: Downregulation of N-Cadherin protein expression in human NCI-H1299 cells at 5 to 15 nM incubated for 24 hrs by western blot analysis; type: functional, cell-based; conditions: dose 5-15 nM
[21] = target: Vascular endothelial growth factor receptor 2 (Homo sapiens) (UniProt P35968); assay: Inhibition of VEGF-A-mediated VEGFR2 signaling pathway in human HUVEC cells assessed as reduction in mTOR phosphorylation at Ser2448 residue at 5 to 15 nM incubated for 36 hrs by western blot analysis; type: cell-based; conditions: dose 5-15 nM
[22] = target: Vascular endothelial growth factor receptor 2 (Homo sapiens) (UniProt P35968); assay: Inhibition of VEGF-A-mediated VEGFR2 signaling pathway in human HMEC-1 cells assessed as reduction in VEGFR2 phosphorylation at Tyr1175 residue at 5 to 15 nM incubated for 36 hrs by western blot analysis; type: cell-based; conditions: dose 5-15 nM
[23] = Toxicity against BALB/c nude mouse xenografted with human NCI-H1299 cells assessed as morphological changes in liver at 0.75 to 1.5 mg/kg, ip administered every other day for 20 days by Hematoxylin and eosin staining based inverted microscopic analysis; type: organism-based; conditions: in vivo, 480 h, dose 0.75-1.5 mg/kg, time 20 day
NCI-H1299 [24] = assay: Inhibition of vasculogenic-mimicry in human NCI-H1299 cells assessed as inhibition of cell migration at 5 to 15 nM measured after 24 hrs by Transwell migration assay; type: functional, cell-based; conditions: dose 5-15 nM
HUVEC [25] = assay: Antiangiogenic activity against human HUVEC cells assessed as inhibition of cell migration measured after 24 hrs by Transwell migration assay; type: functional, cell-based; conditions: dose 5-15 nM
HMEC-1 [26] = assay: Downregulation of VEGF-A protein expression in human HMEC-1 cells at 5 to 15 nM incubated for 36 hrs by western blot analysis; type: functional, cell-based; conditions: dose 5-15 nM
NCI-H1299 [27] = assay: Downregulation of N-Cadherin mRNA expression in human NCI-H1299 cells at 5 to 15 nM incubated for 24 hrs by qPCR analysis; type: functional, cell-based; conditions: dose 5-15 nM
[28] = target: Vascular endothelial growth factor receptor 2 (Homo sapiens) (UniProt P35968); assay: Inhibition of VEGF-A-mediated VEGFR2 signaling pathway in human HUVEC cells assessed as reduction in FAK phosphorylation at Tyr397 residue at 5 to 15 nM incubated for 36 hrs by western blot analysis; type: cell-based; conditions: dose 5-15 nM
NCI-H1299 [29] = assay: Antitumor activity against human NCI-H1299 cells xenografted in BALB/c nude mouse assessed as reduction in Ki67 expression in tumor at 0.75 to 1.5 mg/kg, ip administered every other day for 20 days by immunohistochemical analysis; type: functional, organism-based; conditions: dose 0.75-1.5 mg/kg, time 20.0 day
HUVEC [30] = assay: Downregulation of VEGF-A protein expression in human HUVEC cells at 5 to 15 nM incubated for 36 hrs by western blot analysis; type: functional, cell-based; conditions: dose 5-15 nM
HBVP = assay: Inhibition of PDGF-BB protein expression in human HBVP cells at 5 to 15 nM incubated for 24 hrs by western blot analysis; type: functional, cell-based; conditions: dose 5-15 nM
NCI-H1299 [31] = assay: Antitumor activity against human NCI-H1299 cells xenografted in BALB/c nude mouse assessed as tumor volume at 1.5 mg/kg, ip administered every other day for 20 days by vernier caliper analysis (reference value: 1206.46 +/-332.44 mm3); type: functional; conditions: time 20 day

Sequence of Vascular endothelial growth factor receptor 2 (Homo sapiens) (P35968 whole entry): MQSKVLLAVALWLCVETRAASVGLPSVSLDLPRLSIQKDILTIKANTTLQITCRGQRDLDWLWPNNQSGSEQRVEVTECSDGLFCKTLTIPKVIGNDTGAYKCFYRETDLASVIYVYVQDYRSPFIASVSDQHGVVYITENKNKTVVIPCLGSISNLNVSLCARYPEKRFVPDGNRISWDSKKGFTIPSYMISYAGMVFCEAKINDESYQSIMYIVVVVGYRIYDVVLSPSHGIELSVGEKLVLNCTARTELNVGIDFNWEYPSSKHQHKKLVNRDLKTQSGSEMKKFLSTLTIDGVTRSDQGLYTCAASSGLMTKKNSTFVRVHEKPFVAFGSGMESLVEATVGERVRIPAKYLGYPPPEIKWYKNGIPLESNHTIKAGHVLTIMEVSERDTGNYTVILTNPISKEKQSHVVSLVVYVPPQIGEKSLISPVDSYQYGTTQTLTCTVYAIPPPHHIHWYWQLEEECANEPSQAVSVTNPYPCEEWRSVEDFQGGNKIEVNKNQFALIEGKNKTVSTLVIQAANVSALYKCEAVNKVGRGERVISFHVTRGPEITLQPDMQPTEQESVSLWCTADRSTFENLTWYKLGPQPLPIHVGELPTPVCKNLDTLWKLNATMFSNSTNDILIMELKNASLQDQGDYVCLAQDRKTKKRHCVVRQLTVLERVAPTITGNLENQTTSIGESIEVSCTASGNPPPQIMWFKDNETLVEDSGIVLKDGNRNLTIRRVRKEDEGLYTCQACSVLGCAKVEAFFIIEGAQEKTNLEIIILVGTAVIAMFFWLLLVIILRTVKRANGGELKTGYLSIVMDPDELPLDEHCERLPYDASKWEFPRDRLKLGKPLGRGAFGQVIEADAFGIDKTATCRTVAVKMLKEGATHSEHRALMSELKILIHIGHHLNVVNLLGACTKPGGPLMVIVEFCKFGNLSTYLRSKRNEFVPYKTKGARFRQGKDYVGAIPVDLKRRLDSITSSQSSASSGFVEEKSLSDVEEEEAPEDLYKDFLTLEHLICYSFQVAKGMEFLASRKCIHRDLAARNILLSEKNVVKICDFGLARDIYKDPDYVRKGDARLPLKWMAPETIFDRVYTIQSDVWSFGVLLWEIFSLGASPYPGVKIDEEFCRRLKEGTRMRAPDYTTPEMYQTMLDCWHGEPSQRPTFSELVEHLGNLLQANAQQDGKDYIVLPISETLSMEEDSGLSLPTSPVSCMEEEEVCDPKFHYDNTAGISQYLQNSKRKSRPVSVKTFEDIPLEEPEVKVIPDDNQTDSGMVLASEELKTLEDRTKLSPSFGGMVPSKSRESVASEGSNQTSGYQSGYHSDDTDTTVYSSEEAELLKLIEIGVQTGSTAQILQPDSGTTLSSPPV
Sequence of Platelet-derived growth factor receptor beta (Homo sapiens) (P09619 whole entry): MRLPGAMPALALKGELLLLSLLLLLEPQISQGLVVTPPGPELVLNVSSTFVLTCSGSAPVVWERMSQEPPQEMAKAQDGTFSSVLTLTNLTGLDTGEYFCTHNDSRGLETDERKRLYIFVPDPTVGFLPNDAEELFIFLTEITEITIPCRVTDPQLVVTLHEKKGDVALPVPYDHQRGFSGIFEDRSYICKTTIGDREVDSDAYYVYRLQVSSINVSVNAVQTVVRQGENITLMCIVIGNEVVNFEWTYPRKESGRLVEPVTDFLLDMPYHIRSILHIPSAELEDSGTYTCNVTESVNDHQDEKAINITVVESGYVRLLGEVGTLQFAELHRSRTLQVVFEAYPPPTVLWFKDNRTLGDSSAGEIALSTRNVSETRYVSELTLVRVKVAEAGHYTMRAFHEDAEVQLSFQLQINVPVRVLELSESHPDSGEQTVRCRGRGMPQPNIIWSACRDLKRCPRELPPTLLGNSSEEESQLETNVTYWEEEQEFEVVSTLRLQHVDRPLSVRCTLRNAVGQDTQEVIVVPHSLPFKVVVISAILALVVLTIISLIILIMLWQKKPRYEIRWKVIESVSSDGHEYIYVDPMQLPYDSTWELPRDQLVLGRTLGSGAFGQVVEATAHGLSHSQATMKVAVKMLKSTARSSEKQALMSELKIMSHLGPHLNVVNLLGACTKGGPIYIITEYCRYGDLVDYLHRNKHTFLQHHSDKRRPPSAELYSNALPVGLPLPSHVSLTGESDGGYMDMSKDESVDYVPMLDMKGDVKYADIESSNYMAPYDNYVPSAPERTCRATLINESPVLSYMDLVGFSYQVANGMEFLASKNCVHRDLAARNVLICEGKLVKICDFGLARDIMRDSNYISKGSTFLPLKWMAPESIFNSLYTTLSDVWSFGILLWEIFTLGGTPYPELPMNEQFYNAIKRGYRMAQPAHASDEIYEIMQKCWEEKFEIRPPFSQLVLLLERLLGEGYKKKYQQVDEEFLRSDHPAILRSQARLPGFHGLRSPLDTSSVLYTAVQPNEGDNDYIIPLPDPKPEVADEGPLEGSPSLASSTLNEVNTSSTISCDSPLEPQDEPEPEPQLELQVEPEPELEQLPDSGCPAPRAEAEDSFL

COc1ccc(C[C@@H]2NC(=O)[C@@]34OC(=O)O/C=C/[C@@](C)(O)C(=O)[C@@H](C)C/C=C/[C@H]3[C@H](O)[C@](C)(O)[C@@H](C)[C@@H]24)cc1 [SCOPARASIN B]
Activity (HMEC-1 [1]): Dose-Dependent Effect | Activity (Rattus norvegicus): Dose-Dependent Effect | inhibition (NCI-H1299 [2]): Active | inhibition (NCI-H1299 [3]): Active | inhibition (NCI-H1299 [4]): Active | inhibition [5]: Active | inhibition (HMEC-1 [6]): Dose-Dependent Effect | inhibition (HUVEC [7]): Active | inhibition (NCI-H1299 [8]): Active | inhibition (NCI-H1299 [9]): Active | inhibition (NCI-H1299 [10]): Active | Activity (HUVEC [11]): 100% | inhibition [12]: Active | Activity (HMEC-1 [13]): Non-Toxic | Activity (NCI-H1299 [14]): 559.86 mm3 | Activity (NCI-H1299 [15]): Active | inhibition [16]: Active | Activity (HMEC-1 [17]): Dose-Dependent Effect | inhibition [18]: Active | Activity (HUVEC [19]): Dose-Dependent Effect | inhibition (NCI-H1299 [20]): Active | inhibition [21]: Active | inhibition [22]: Active | Activity [23]: Non-Toxic | inhibition (NCI-H1299 [24]): Active | Activity (HUVEC [25]): Dose-Dependent Effect | inhibition (HMEC-1 [26]): Active | inhibition (NCI-H1299 [27]): Active | inhibition [28]: Active | Activity (NCI-H1299 [29]): Active | inhibition (HUVEC [30]): Active | inhibition (HBVP): Active | Activity (NCI-H1299 [31]): 190.09 mm3
